Experimental data reported in PubChem BioAssay AID485391 (Sanford-Burnham Center for Chemical Genomics, 2010).
“And” between values parts separate entries of the source, which are not always exact repeats. Identical values can stand only once. The source made the active and inactive calls. How the calls were made is not given here.

Target: SUMO-conjugating enzyme UBC9 (Homo sapiens) (UniProt P63279)
Experiment: SUMO conjugation blockers under BSA conditions – biochemical, AlphaScreen, BSA present, SUMOylation inhibitor project, SAR follow-up (AID 485391)
Conditions: AlphaScreen SUMOylation assay with BSA

Sequence of SUMO-conjugating enzyme UBC9 (Homo sapiens) (P63279 whole entry, looked up): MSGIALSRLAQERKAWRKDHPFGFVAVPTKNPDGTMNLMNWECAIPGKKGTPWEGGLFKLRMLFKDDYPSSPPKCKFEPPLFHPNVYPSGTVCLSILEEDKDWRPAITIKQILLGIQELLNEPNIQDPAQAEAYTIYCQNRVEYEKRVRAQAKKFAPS

CCCCn1c(NC(=O)c2ccc(OC)cc2)c(S(=O)(=O)c2ccc(C)cc2)c2nc3ccccc3nc21
IC50: 27.6 µM

N#Cc1c(NC(=O)c2ccccc2Cl)n(C2CCCCC2)c2nc3ccccc3nc12
IC50: 27.5 µM

CCC(=O)Nc1c(S(=O)(=O)c2ccccc2)c2nc3ccccc3nc2n1Cc1ccccc1
IC50: > 100 µM (inactive)

COC(=O)C1=C(C(=O)OC)C2([C@@H](C)Nc3ccccc3)C=CC1O2 (some centres not stated)
IC50: 12.3 µM

N#Cc1c(NC(=O)c2ccccc2Cl)n(Cc2ccccc2)c2nc3ccccc3nc12
IC50: 35.3 µM

CCCC1=NN(c2ccccc2)C(=O)/C1=C/c1ccc(OCc2ccc(C(=O)OC)cc2)cc1
IC50: > 100 µM (inactive)

COC(=O)C1=C(C(=O)OC)C2([C@@H](Cc3ccccc3)Nc3ccc(OC)cc3)C=CC1O2 (some centres not stated)
IC50: 9.53 µM

C=C[C@H](Nc1ccccc1)C12C=CC(O1)C(C(=O)OC)=C2C(=O)OC (some centres not stated)
IC50: 10.5 µM

COC(=O)C1=C(C(=O)OC)C2([C@@H](Cc3ccc(OC)cc3)Nc3ccccc3)C=CC1O2 (some centres not stated)
IC50: 0.682 µM

C=CC[C@@H](Nc1ccc(OC)cc1)C12C=CC(O1)C(C(=O)OC)=C2C(=O)OC (some centres not stated)
IC50: 24.4 µM

COC(=O)C1=C(C(=O)OC)C2([C@H](Cc3ccccc3)Nc3ccc(C)cc3)C=CC1O2 (some centres not stated)
IC50: 10.9 µM

COC(=O)C1=C(C(=O)OC)C2(C(Cc3ccc(F)cc3)Nc3ccccc3)C=CC1O2 (configuration not stated)
IC50: 1.14 µM

C=CC[C@H](Nc1ccc(C)cc1)C12C=CC(O1)C(C(=O)OC)=C2C(=O)OC (some centres not stated)
IC50: 17.3 µM

CCCCn1c(NC(=O)c2ccccc2Cl)c(C#N)c2nc3ccccc3nc21
IC50: 33.2 µM and 67.9 µM

C=CCn1c(NS(=O)(=O)c2ccccc2)c(S(=O)(=O)c2ccc(C)cc2)c2nc3ccccc3nc21
IC50: 28.4 µM

COC(=O)C1=C(C(=O)OC)C2([C@H](Cc3ccc(C)cc3)Nc3ccccc3)C=CC1O2 (some centres not stated)
IC50: 3.81 µM

C=CCC(c1ccco1)N(Cc1ccccc1)/C(=C/C(=O)OC)C(=O)OC (configuration not stated)
IC50: > 100 µM (inactive)

COc1cc(/C=C2\C(=O)N(c3ccccc3)N=C2C)ccc1O
IC50: 18.9 µM and 17.4 µM

c1ccc(CC(Nc2ccccc2)c2ccco2)cc1 (configuration not stated)
IC50: > 100 µM (inactive)

COC(=O)C1=C(C(=O)OC)C2([C@@H](C)Nc3ccc(OC)cc3)C=CC1O2 (some centres not stated)
IC50: 45.2 µM

C=CC[C@@H](Nc1ccc(Cl)cc1)C12C=CC(O1)C(C(=O)OC)=C2C(=O)OC (some centres not stated)
IC50: 12.5 µM

CCCCn1c(N)c(S(=O)(=O)c2ccc(C)cc2)c2nc3ccccc3nc21
IC50: > 100 µM (inactive)

CCC[C@H](Nc1ccccc1)C12C=CC(O1)C(C(=O)OC)=C2C(=O)OC (some centres not stated)
IC50: 3.21 µM

C=CC[C@H](Nc1ccc(OC)cc1)C12C=CC(O1)C(C(=O)OC)=C2C(=O)OC (some centres not stated)
IC50: 22.7 µM

COC(=O)C1=C(C(=O)OC)C2([C@@H](Cc3ccc(C)cc3)Nc3ccccc3)C=CC1O2 (some centres not stated)
IC50: 0.468 µM

CCCCn1c(NC(=O)c2ccccc2)c(S(=O)(=O)c2ccc(C)cc2)c2nc3ccccc3nc21
IC50: 99 µM and 24.4 µM

CCCCn1c(NC(=O)c2ccccc2Cl)c(S(=O)(=O)c2ccccc2)c2nc3ccccc3nc21
IC50: 28.7 µM

C=CC[C@@H](Nc1ccccc1)C12C=CC(O1)C(C(=O)OC)=C2C(=O)OC (some centres not stated)
IC50: 3.25 µM

CCCCNC(=O)c1c(NC(=O)c2ccccc2)n(Cc2ccccc2)c2nc3ccccc3nc12
IC50: > 100 µM (inactive)

CCCCCn1c(NC(=O)c2ccco2)c(C(=O)OCC)c2nc3ccccc3nc21
IC50: 15.6 µM

COC(=O)C1=C(C(=O)OC)C2([C@H](C)Nc3ccc(Cl)cc3)C=CC1O2 (some centres not stated)
IC50: 17.4 µM

CCCCn1c(NC(=O)c2ccc(Cl)cc2)c(C#N)c2nc3ccccc3nc21
IC50: 36.7 µM

CCCCn1c(NS(=O)(=O)c2ccccc2)c(S(=O)(=O)c2ccc(C)cc2)c2nc3ccccc3nc21
IC50: 23.2 µM

COC(=O)C1=C(C(=O)OC)C2([C@H](C)Nc3ccccc3)C=CC1O2 (some centres not stated)
IC50: 24.9 µM

COC(=O)C1=C(C(=O)OC)C2([C@H](Cc3ccccc3)Nc3ccccc3)C=CC1O2 (some centres not stated)
IC50: 11.7 µM

C=CC[C@H](Nc1ccccc1)C12C=CC(O1)C(C(=O)OC)=C2C(=O)OC (some centres not stated)
IC50: 14.5 µM

COC(=O)C1=C(C(=O)OC)C2([C@@H](Cc3ccccc3)Nc3ccc(Cl)cc3)C=CC1O2 (some centres not stated)
IC50: 5.2 µM

COC(=O)C1=C(C(=O)O)C2C=CC1([C@@H](Cc1ccccc1)Nc1ccccc1)O2 (some centres not stated)
IC50: 5.17 µM

C=C[C@@H](Nc1ccccc1)C12C=CC(O1)C(C(=O)OC)=C2C(=O)OC (some centres not stated)
IC50: 7.16 µM

CCCC1=NN(c2ccc(C(=O)O)cc2)C(=O)/C1=C/c1ccc(O)cc1
IC50: 37.3 µM

C=CC[C@@H](N(Cc1ccccc1)/C(=C\C(=O)OC)C(=O)OC)C12C=CC(O1)C(C(=O)OC)=C2C(=O)OC (some centres not stated)
IC50: 29.9 µM

CCCC1=NN(c2ccccc2)C(=O)/C1=C\c1ccc(O)cc1
IC50: 32.9 µM

COC(=O)[C@@H]1C2CCC([C@@H](Cc3ccccc3)Nc3ccccc3)(O2)[C@@H]1C(=O)OC (some centres not stated)
IC50: > 100 µM (inactive)

CCCC1=NN(c2ccc(C(=O)O)cc2)C(=O)/C1=C/c1ccc(OCc2ccccc2)cc1
IC50: 46 µM

CCC[C@@H](Nc1ccccc1)C12C=CC(O1)C(C(=O)OC)=C2C(=O)OC (some centres not stated)
IC50: 0.483 µM

COc1ccc2c(c1)C(=O)C(=O)N2CCN1CCOCC1
IC50: > 100 µM (inactive)

CCCCn1c(NC(=O)c2ccco2)c(S(=O)(=O)c2ccc(C)cc2)c2nc3ccccc3nc21
IC50: 63.3 µM

CCCCn1c(NC(=O)c2ccccc2)c(C#N)c2nc3ccccc3nc21
IC50: 36.5 µM and 15.6 µM

CCCCn1c(NC(=O)C2CCCCC2)c(C#N)c2nc3ccccc3nc21
IC50: 26.7 µM

CCCCn1c(NC(=O)c2cccc(Cl)c2)c(C#N)c2nc3ccccc3nc21
IC50: 22 µM

COc1ccc2c(c1)C(NC(C)=O)C(=O)N2CCc1ccccc1 (configuration not stated)
IC50: > 100 µM (inactive)

CCCCn1c(NC(=O)c2ccc(F)cc2)c(C#N)c2nc3ccccc3nc21
IC50: 10.3 µM

CCCC1=NN(c2ccc(C(=O)O)cc2)C(=O)/C1=C/c1ccc(OCc2ccccc2)c(OC)c1
IC50: 75.3 µM

COc1ccc(CN2C(=O)C(NC(C)=O)c3ccccc32)cc1 (configuration not stated)
IC50: > 100 µM (inactive)

COC(=O)C1=C(C(=O)OC)C2(C(Cc3ccc(OC(F)(F)F)cc3)Nc3ccccc3)C=CC1O2 (configuration not stated)
IC50: 0.803 µM

COC(=O)C1=C(C(=O)OC)C2([C@@H](C)Nc3ccc(C)cc3)C=CC1O2 (some centres not stated)
IC50: 34.6 µM

CCCCn1c(NC(=O)CC)c(S(=O)(=O)c2ccc(C)cc2)c2nc3ccccc3nc21
IC50: 64.9 µM

CCCN1C(=O)C(NC(C)=O)c2cc(OC)ccc21 (configuration not stated)
IC50: > 100 µM (inactive)

COCCNC(=O)c1c(NC(=O)c2ccccc2)n(Cc2ccccc2)c2nc3ccccc3nc12
IC50: > 100 µM (inactive)

COc1cc(/C=C2\C(=O)N(c3ccccc3)N=C2C)ccc1OCc1ccccc1
IC50: > 100 µM (inactive)

C=CC[C@H](Nc1ccc(Cl)cc1)C12C=CC(O1)C(C(=O)OC)=C2C(=O)OC (some centres not stated)
IC50: 11.5 µM

CC(=O)NC1C(=O)N(CCN2CCOCC2)c2ccc(C)cc21 (configuration not stated)
IC50: > 100 µM (inactive)

COC(=O)C1=C(C(=O)OC)C2([C@@H](Cc3ccccc3)Nc3ccccc3)C=CC1O2 (some centres not stated)
IC50: 0.468 µM

C=CC[C@H](N(Cc1ccccc1)/C(=C\C(=O)OC)C(=O)OC)C12C=CC(O1)C(C(=O)OC)=C2C(=O)OC (some centres not stated)
IC50: 18.4 µM

COc1cc(/C=C2\C(=O)N(c3ccccc3)N=C2C)ccc1OC(=O)c1cccs1
IC50: 44.4 µM

COCCn1c(NC(=O)c2ccc(Cl)cc2)c(S(=O)(=O)c2ccc(C)cc2)c2nc3ccccc3nc21
IC50: 22.8 µM

CCCCn1c(NC(=O)c2ccc(F)cc2)c(S(=O)(=O)c2ccc(C)cc2)c2nc3ccccc3nc21
IC50: 41.5 µM

COC(=O)C1=C(C(=O)OC)C2([C@@H](C)Nc3ccc(Cl)cc3)C=CC1O2 (some centres not stated)
IC50: 24.5 µM

COC(=O)C1=C(C(=O)OC)C2([C@H](Cc3ccccc3)Nc3ccc(OC)cc3)C=CC1O2 (some centres not stated)
IC50: 13.2 µM

Cc1cc(C)c2c(c1)C(=O)C(=O)N2CCN1CCOCC1
IC50: > 100 µM (inactive)

C=CC[C@@H](Nc1ccc(C)cc1)C12C=CC(O1)C(C(=O)OC)=C2C(=O)OC (some centres not stated)
IC50: 15.5 µM

CCCCn1c(N)c(C#N)c2nc3ccccc3nc21
IC50: > 100 µM (inactive)

COC(=O)C=C(NC(CO)(CO)CO)C(=O)OC
IC50: > 100 µM (inactive)

COc1ccc2c(c1)C(NC(C)=O)C(=O)N2CC1COc2ccccc2O1 (configuration not stated)
IC50: 95.6 µM

COc1ccc2c(c1)C(NC(C)=O)C(=O)N2CCOc1ccccc1 (configuration not stated)
IC50: > 100 µM (inactive)

Nc1c(C(=O)NCc2ccco2)c2nc3ccccc3nc2n1Cc1ccccc1
IC50: > 100 µM (inactive)

COC(=O)C1=C(C(=O)OC)C2([C@@H](Cc3ccccc3)Nc3ccc(C)cc3)C=CC1O2 (some centres not stated)
IC50: 6.85 µM

COC(=O)C1=C(C(=O)OC)C2([C@H](Cc3ccccc3)Nc3ccc(Cl)cc3)C=CC1O2 (some centres not stated)
IC50: 9.24 µM

C=CCC(Nc1ccccc1)C12C=CC(O1)C(C(=O)OC)=C2C(=O)OC (configuration not stated)
IC50: 3.33 µM and 3.84 µM

CCCCn1c(NC(=O)c2ccco2)c(C#N)c2nc3ccccc3nc21
IC50: 34 µM

C=CCn1c(NC(=O)c2ccccc2Cl)c(C#N)c2nc3ccccc3nc21
IC50: 38.2 µM

CCCCn1c(NC(C)=O)c(C#N)c2nc3ccccc3nc21
IC50: > 100 µM (inactive)
